According to the supplement of paper PMC11061612:

What was measured:
Assay in all cases: Bliss excess, mean over the matrix (fraction); higher = more synergy
[1] = tested on: CAL-78 (Chondrosarcoma)
Outline: (§1)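 Cell lines grown in DMEM/F12 or RPMI with 10% FBS were plated in 1536-well plates and held 24 hours at 37°C, 5% CO2 before 72 hours of exposure to two-drug dose matrices, with DMSO typically at 0.2%. CellTiter-Glo 2.0 luminescence gave viability, which was converted to inhibition. Vehicle wells were set to 0 and blank wells to 1. Combination Emax is the second-highest inhibition in the matrix, and Bliss excess is the observed combination effect minus the expected EA + EB − EA·EB, where EA and EB are the single-agent effects.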

[2] = tested on: CTV-1 (T-Lymphoblastic Leukemia)
Outline: as §1

[3] = tested on: DOV13 (Ovarian Carcinoma)
Outline: as §1

[4] = tested on: EM-2 (Chronic Myelogenous Leukemia)
Outline: as §1

[5] = tested on: G-292-Clone-A141B1 (Osteosarcoma)
Outline: as §1

[6] = tested on: HPAC (Pancreatic Carcinoma)
Outline: as §1

[7] = tested on: IGR-1 (Melanoma)
Outline: as §1

[8] = tested on: JiyoyeP-2003 (Burkitt's Lymphoma)
Outline: as §1

[9] = tested on: LU-99A (Non-Small Cell Lung Carcinoma)
Outline: as §1

[10] = tested on: MDA-MB-231 (Breast Carcinoma)
Outline: as §1

[11] = tested on: MFH-ino (Other Solid Carcinomas)
Outline: as §1

[12] = tested on: NALM-6 (B-Lymphoblastic Leukemia)
Outline: as §1

[13] = tested on: NCI-H1781 (Lung Adenocarcinoma)
Outline: as §1

[14] = tested on: NCI-H1793 (Lung Adenocarcinoma)
Outline: as §1

[15] = tested on: NCI-H2369 (Mesothelioma)
Outline: as §1

[16] = tested on: SK-N-FI (Neuroblastoma)
Outline: as §1

[17] = tested on: SNU-C5 (Colorectal Carcinoma)
Outline: as §1

[18] = tested on: SW1990 (Pancreatic Carcinoma)
Outline: as §1

[19] = tested on: TE-5 (Esophageal Squamous Cell Carcinoma)
Outline: as §1

[20] = tested on: TGBC24TKB (Biliary Tract Carcinoma)
Outline: as §1

Row | Compound | Bliss excess [1] | Bliss excess [2] | Bliss excess [3] | Bliss excess [4] | Bliss excess [5] | Bliss excess [6] | Bliss excess [7] | Bliss excess [8] | Bliss excess [9] | Bliss excess [10] | Bliss excess [11] | Bliss excess [12] | Bliss excess [13] | Bliss excess [14] | Bliss excess [15] | Bliss excess [16] | Bliss excess [17] | Bliss excess [18] | Bliss excess [19] | Bliss excess [20]
1 | C[C@@H](c1ccc2nccn2c1)n1nnc2ncc(-c3cnn(C)c3)nc21 [Savolitinib] + CC1(C)CCC(CN2CCN(c3ccc(C(=O)NS(=O)(=O)c4ccc(NCC5CCOCC5)c([N+](=O)[O-])c4)c(Oc4cnc5[nH]ccc5c4)c3)CC2)=C(c2ccc(Cl)cc2)C1 [Venetoclax] (first compound max 1 µM, 7x7, partner max 1 µM) | -0.0872 | -0.0245 | -0.0552 | -0.0593 | -0.0442 | -0.084 | -0.0583 | -0.0438 | -0.0746 | -0.0599 | -0.0657 | 0.01 | -0.0702 | -0.0566 | -0.058 | -0.0537 | -0.0596 | -0.0219 | -0.0557 | -0.0283
2 | COc1cc2c(cc1OCCCCCOc1cc3c(cc1OC)C(=O)N1C=C(C)C[C@H]1C=N3)N=C[C@@H]1CC(C)=CN1C2=O [SG3199] + O=C(c1cc(Cc2n[nH]c(=O)c3ccccc23)ccc1F)N1CCN(C(=O)C2CC2)CC1 [Olaparib] (first compound max 0.001 µM, 7x7, partner max 10 µM) | -0.0831 | -0.013 | -0.0443 | 0.0107 | -0.0571 | -0.0232 | -0.0189 | -0.0016 | -0.0672 | -0.0808 | -0.0739 | -0.0302 | -0.0305 | -0.0323 | -0.035 | -0.0296 | -0.0362 | -0.049 | -0.0665 | -0.0087
3 | Cc1c2c(nn1C)CSCc1cc(n(C)n1)CSc1cc(c3ccccc3c1)OCCCc1c(C(=O)O)n(C)c3c-2c(Cl)ccc13 [AZD5991] + C=CCn1c(=O)c2cnc(Nc3ccc(N4CCN(C)CC4)cc3)nc2n1-c1cccc(C(C)(C)O)n1 [AZD1775] (first compound max 1 µM, partner max 1 µM) | -0.0193 | 0.0316 | -0.038 | -0.0674 | -0.0178 | -0.0132 | 0.061 | -0.0253 | 0.017 | -0.0812 | 0.0604 | -0.0229 | -0.054 | -0.0329 | 0.0049 | -0.0478 | 0.0145 | -0.024 | 0.0264 | -0.0375
4 | CN(CCO)CC[C@H](CSc1ccccc1)Nc1ccc(S(=O)(=O)NC(=O)c2ccc(N3CCC([C@@H](O)c4ccccc4-c4ccc(Cl)cc4)CC3)cc2)cc1S(=O)(=O)C(F)(F)F [AZD4320] + C[C@@H]1COCCN1C2=NC(=NC(=C2)C3(CC3)[S@](=N)(=O)C)C4=C5C=CNC5=NC=C4 [AZD6738] (first compound max 1 µM, 7x7, partner max 10 µM) | 0.0071 | -0.0498 | -0.0448 | 0.005 | -0.0265 | -0.007 | 0.0464 | -0.0334 | -0.0464 | -0.0571 | -0.0785 | 0.0379 | -0.0005 | -0.0272 | 0.0246 | -0.0299 | -0.0131 | 0.0112 | 0.0256 | -0.0245
5 | CC1(C)CCC(CN2CCN(c3ccc(C(=O)NS(=O)(=O)c4ccc(NCC5CCOCC5)c([N+](=O)[O-])c4)c(Oc4cnc5[nH]ccc5c4)c3)CC2)=C(c2ccc(Cl)cc2)C1 [Venetoclax] + C1CN(CCC1(C(=O)N[C@@H](CCO)C2=CC=C(C=C2)Cl)N)C3=NC=NC4=C3C=CN4 [Capivasertib] (first compound max 1 µM, 7x7, partner max 3 µM) | -0.0387 | -0.0319 | -0.0028 | -0.0593 | -0.0701 | -0.0234 | -0.0602 | -0.0144 | -0.0702 | -0.0443 | -0.0294 | 0.0346 | -0.0811 | -0.041 | -0.0422 | 0.0002 | -0.0069 | -0.064 | -0.0197 | 0.0325
6 | CN(C)CCCOc1ccc(-c2ccc3ncc4c(c3c2)n(C2CCOCC2)c(=O)n4C)cn1 [AZD0156] + C[C@@H]1COCCN1C2=NC(=NC(=C2)C3(CC3)[S@](=N)(=O)C)C4=C5C=CNC5=NC=C4 [AZD6738] (first compound max 1 µM, 7x7, partner max 10 µM) | -0.0694 | -0.0115 | -0.0395 | 0.0124 | -0.0091 | 0.067 | -0.0032 | 0.0501 | -0.0423 | 0.0105 | -0.0591 | -0.0082 | -0.0229 | -0.0268 | -0.0253 | 0.0055 | 0.0298 | -0.0202 | -0.0609 | -0.0165
7 | CN(CCO)CC[C@H](CSc1ccccc1)Nc1ccc(S(=O)(=O)NC(=O)c2ccc(N3CCC([C@@H](O)c4ccccc4-c4ccc(Cl)cc4)CC3)cc2)cc1S(=O)(=O)C(F)(F)F [AZD4320] + CN(C)CCCOc1ccc(-c2ccc3ncc4c(c3c2)n(C2CCOCC2)c(=O)n4C)cn1 [AZD0156] (first compound max 1 µM, 7x7, partner max 1 µM) | -0.004 | -0.0055 | -0.0021 | -0.0192 | -0.015 | -0.0709 | -0.0149 | -0.0211 | -0.006 | 0.0319 | -0.059 | 0.0217 | -0.0694 | -0.027 | -0.036 | -0.0252 | 0.0125 | -0.0411 | -0.0135 | 0.0025
8 | C=CCn1c(=O)c2cnc(Nc3ccc(N4CCN(C)CC4)cc3)nc2n1-c1cccc(C(C)(C)O)n1 [AZD1775] + C[C@@H]1COCCN1C2=NC(=NC(=C2)C3(CC3)[S@](=N)(=O)C)C4=C5C=CNC5=NC=C4 [AZD6738] (first compound max 1 µM, partner max 10 µM) | 0.0171 | 0.0737 | 0.0366 | 0.0362 | -0.0665 | 0.0473 | 0.0632 | 0.046 | -0.0377 | 0.0726 | -0.0909 | 0.0491 | -0.0334 | -0.0289 | -0.0395 | -0.0346 | -0.0173 | -0.0352 | -0.0843 | -0.0018
9 | CC(=O)c1c(C)c2cnc(Nc3ccc(N4CCNCC4)cn3)nc2n(C2CCCC2)c1=O [Palbociclib] + CN(CC[C@H](CSC1=CC=CC=C1)NC2=C(C=C(C=C2)S(=O)(=O)NC(=O)C3=CC=C(C=C3)N4CCC(CC4)[C@H](C5=CC=CC=C5C6=CC=C(C=C6)Cl)O)S(=O)(=O)C(F)(F)F)CCO [AZD4320] (first compound max 10 µM, 7x7, partner max 1 µM) | -0.0873 | -0.0365 |  | -0.0899 |  | -0.0765 | -0.0387 | -0.0053 | -0.119 |  |  |  | -0.0811 | -0.0299 | -0.0408 |  | 0.025 |  |  | -0.0727
10 | CCc1c2c(nc3ccc(O)cc13)-c1cc3c(c(=O)n1C2)COC(=O)[C@]3(O)CC [SN-38] + O=C(c1cc(Cc2n[nH]c(=O)c3ccccc23)ccc1F)N1CCN(C(=O)C2CC2)CC1 [Olaparib] (first compound max 0.3 µM, 7x7, partner max 10 µM) |  | 0.0665 | 0.0456 | 0.0606 | -0.0332 | -0.0031 | 0.0115 | 0.104 | 0.0452 | 0.107 | 0.0254 | 0.0775 | 0.0788 |  | 0.0128 | 0.0478 |  | 0.0001 | 0.0521 | 0.0421
11 | Cc1nc(Nc2ncc(C(=O)Nc3c(C)cccc3Cl)s2)cc(N2CCN(CCO)CC2)n1 [Dasatinib] + CC(=O)Nc1cccc(-n2c(=O)n(C3CC3)c(=O)c3c(Nc4ccc(I)cc4F)n(C)c(=O)c(C)c32)c1 [Trametinib] (first compound max 2 µM, 7x7, partner max 1 µM) | -0.108 | 0.0181 | 0.0135 | -0.0935 |  | 0.039 | -0.0448 | 0.193 | -0.0137 | -0.0145 | -0.0838 | 0.0217 | -0.0355 | -0.0406 | -0.0535 | 0.0118 | -0.013 | 0.0235 | -0.0099 | 0.106
12 | COc1nnc2ccc(N3CCC(c4ccc(OCCN5CCN(C)C(=O)[C@H]5C)cc4)CC3)nn12 [AZD5153] + CN(CC[C@H](CSC1=CC=CC=C1)NC2=C(C=C(C=C2)S(=O)(=O)NC(=O)C3=CC=C(C=C3)N4CCC(CC4)[C@H](C5=CC=CC=C5C6=CC=C(C=C6)Cl)O)S(=O)(=O)C(F)(F)F)CCO [AZD4320] (first compound max 1 µM, 7x7, partner max 1 µM) | 0.132 | 0.0057 |  | -0.0442 |  | 0.0229 | 0.197 | -0.0036 | 0.128 |  |  |  | -0.0212 | 0.039 | -0.0032 |  | 0.0451 |  |  | 0.0326
13 | C[C@@H](c1ccc2nccn2c1)n1nnc2ncc(-c3cnn(C)c3)nc21 [Savolitinib] + CN(CC[C@H](CSC1=CC=CC=C1)NC2=C(C=C(C=C2)S(=O)(=O)NC(=O)C3=CC=C(C=C3)N4CCC(CC4)[C@H](C5=CC=CC=C5C6=CC=C(C=C6)Cl)O)S(=O)(=O)C(F)(F)F)CCO [AZD4320] (first compound max 1 µM, 7x7, partner max 1 µM) | -0.0906 | -0.0887 |  | -0.0531 |  | -0.0347 | -0.0913 | -0.0082 | -0.0558 |  |  |  | -0.053 | -0.0329 | -0.0522 |  | -0.0448 |  |  | 0.0233
14 | COc1cc2ncnc(Nc3ccc(F)c(Cl)c3)c2cc1OCCCN1CCOCC1 [Gefitinib] + CC(C)n1c(=O)n(C)c2cnc3cc(F)c(-c4ccc(OCCCN5CCCCC5)nc4)cc3c21 [AZD1390] (first compound max 10 µM, 7x7, partner max 0.3 µM) | -0.0625 | -0.0468 | -0.1 | -0.0507 | -0.0548 | -0.0607 | -0.006 | -0.0386 |  | -0.0659 | -0.0761 | -0.0643 | -0.0801 | -0.0406 | -0.0614 | -0.0391 | -0.0751 | -0.0441 | -0.045 | -0.0379
